Data published in patent US20090312280A1.

Legend:
[1] = test system: G2 checkpoint induced by camptothecin (Histone H3 phosphorylation on Ser10); experiment: Histone H3 phosphorylation assay (G2 checkpoint abrogation); type: cell-based; conditions: read-out: EC50, abrogation of G2 checkpoint (increase in Histone H3 phosphorylation on Ser10)
[2] = biological target: Bmx (Homo sapiens, UniProt P51813); experiment: biochemical kinase screening assay
[3] = biological target: cSRC (Homo sapiens, UniProt P12931); experiment: biochemical kinase screening assay
Sequence of cSRC (P12931 whole entry): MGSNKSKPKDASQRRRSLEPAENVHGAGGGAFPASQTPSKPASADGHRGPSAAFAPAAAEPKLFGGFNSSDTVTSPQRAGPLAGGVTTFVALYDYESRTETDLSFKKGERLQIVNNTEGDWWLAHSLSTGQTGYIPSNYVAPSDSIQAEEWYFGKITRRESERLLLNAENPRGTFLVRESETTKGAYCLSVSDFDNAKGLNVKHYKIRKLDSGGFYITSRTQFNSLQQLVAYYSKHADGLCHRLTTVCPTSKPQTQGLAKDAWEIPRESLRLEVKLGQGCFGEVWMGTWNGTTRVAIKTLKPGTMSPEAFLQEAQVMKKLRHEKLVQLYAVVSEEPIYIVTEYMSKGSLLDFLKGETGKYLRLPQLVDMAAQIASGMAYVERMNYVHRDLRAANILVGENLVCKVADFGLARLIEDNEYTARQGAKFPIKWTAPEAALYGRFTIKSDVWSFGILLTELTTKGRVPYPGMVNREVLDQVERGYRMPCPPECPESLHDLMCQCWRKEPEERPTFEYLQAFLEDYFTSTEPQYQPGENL

[4] = biological target: Ret (Homo sapiens, UniProt P07949); experiment: biochemical kinase screening assay
[5] = biological target: PDGFRa (Homo sapiens, UniProt P16234); experiment: biochemical kinase screening assay
[6] = biological target: TrkA (Homo sapiens, UniProt P04629); experiment: biochemical kinase screening assay
[7] = biological target: FGFR3 (Homo sapiens, UniProt P22607); experiment: biochemical kinase screening assay
Sequence of FGFR3 (P22607 23-806): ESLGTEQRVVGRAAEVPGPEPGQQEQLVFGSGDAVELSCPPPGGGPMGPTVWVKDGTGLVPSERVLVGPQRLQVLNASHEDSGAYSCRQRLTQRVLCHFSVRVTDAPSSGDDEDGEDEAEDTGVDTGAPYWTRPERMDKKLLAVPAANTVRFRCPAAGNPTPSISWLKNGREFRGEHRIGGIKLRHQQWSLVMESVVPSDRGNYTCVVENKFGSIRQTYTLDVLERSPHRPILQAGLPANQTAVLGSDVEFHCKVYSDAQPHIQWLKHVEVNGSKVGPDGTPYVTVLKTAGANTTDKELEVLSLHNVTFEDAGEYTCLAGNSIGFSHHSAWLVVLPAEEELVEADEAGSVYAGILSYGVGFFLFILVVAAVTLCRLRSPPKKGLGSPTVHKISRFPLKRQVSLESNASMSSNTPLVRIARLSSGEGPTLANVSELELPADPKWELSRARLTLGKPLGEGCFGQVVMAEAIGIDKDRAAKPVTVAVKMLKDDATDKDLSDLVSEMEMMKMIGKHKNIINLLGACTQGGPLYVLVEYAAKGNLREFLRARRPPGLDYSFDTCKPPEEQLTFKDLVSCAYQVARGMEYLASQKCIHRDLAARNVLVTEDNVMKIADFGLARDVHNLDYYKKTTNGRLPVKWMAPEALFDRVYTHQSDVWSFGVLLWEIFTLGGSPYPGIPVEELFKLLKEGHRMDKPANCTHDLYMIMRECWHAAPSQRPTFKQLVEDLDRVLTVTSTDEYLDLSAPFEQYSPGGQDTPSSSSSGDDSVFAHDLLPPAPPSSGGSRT

[8] = biological target: T1, Chk2 (Homo sapiens, UniProt O96017); experiment: biochemical kinase screening assay; conditions: read-out: IC50 (nM), given as Ki
T1 sequence (O96017 whole entry): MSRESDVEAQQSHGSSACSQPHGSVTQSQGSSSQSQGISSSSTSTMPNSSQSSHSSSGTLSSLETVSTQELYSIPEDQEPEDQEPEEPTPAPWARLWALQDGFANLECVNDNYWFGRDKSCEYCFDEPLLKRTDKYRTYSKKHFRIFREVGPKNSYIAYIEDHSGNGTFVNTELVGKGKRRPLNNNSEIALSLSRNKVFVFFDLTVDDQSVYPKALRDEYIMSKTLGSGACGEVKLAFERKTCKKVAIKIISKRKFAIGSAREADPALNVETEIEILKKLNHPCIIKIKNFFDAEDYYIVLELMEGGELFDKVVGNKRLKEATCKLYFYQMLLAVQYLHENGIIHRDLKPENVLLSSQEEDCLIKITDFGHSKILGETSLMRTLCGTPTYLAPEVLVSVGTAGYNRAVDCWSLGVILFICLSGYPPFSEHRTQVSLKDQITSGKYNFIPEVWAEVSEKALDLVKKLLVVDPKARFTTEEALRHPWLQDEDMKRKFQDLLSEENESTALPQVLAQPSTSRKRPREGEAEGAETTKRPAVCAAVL

[9] = test system: Colo205 (Colon); experiment: cell survival / MTT combination cytotoxicity; type: cell-based, human; conditions: Homo sapiens, COLO 205
[10] = test system: HT29 (Colon); experiment: cell survival / MTT combination cytotoxicity; type: cell-based, human; conditions: Homo sapiens, HT-29
[11] = biological target: PAR-1Ba (Homo sapiens, UniProt Q7KZI7); experiment: biochemical kinase screening assay
[12] = test system: MDA-MB-231 (Breast); experiment: cell survival / MTT combination cytotoxicity; type: cell-based, human; conditions: Homo sapiens
[13] = biological target: Fms (Homo sapiens, UniProt P07333); experiment: biochemical kinase screening assay
[14] = test system: HUVEC cells; experiment: cell survival assay in normal cells; type: cell-based
Experimental: (§1) The cytotoxic effect induced by the combination treatment in HUVEC cells is negligible compared with the cytotoxicity induced by the same treatment in tumor cells. […] A cell survival assay was also performed in HTC116 cells (human colon carcinoma) that were transiently transfected with a plasmid containing either p53 wild type or mutant.

[15] = biological target: P70S6K (Homo sapiens, UniProt P23443); experiment: biochemical kinase screening assay
Sequence of P70S6K (P23443 whole entry): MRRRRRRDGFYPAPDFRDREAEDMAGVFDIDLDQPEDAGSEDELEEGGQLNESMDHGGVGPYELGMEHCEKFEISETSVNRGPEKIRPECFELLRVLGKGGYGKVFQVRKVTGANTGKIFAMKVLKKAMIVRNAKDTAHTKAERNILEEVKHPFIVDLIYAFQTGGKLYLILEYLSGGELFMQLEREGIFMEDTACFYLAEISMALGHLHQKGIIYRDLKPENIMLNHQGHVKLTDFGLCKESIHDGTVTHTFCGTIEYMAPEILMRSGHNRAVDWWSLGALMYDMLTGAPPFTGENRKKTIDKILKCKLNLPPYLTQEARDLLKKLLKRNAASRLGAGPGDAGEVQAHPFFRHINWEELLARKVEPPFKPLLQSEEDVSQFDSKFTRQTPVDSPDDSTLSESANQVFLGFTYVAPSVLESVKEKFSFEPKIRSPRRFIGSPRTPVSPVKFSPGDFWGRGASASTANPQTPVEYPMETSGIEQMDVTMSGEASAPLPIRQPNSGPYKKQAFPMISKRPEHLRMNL

[16] = biological target: PKBa (Homo sapiens, UniProt P31749); experiment: biochemical kinase screening assay
[17] = biological target: Yes (Homo sapiens, UniProt P07947); experiment: biochemical kinase screening assay
Sequence of Yes (P07947 whole entry): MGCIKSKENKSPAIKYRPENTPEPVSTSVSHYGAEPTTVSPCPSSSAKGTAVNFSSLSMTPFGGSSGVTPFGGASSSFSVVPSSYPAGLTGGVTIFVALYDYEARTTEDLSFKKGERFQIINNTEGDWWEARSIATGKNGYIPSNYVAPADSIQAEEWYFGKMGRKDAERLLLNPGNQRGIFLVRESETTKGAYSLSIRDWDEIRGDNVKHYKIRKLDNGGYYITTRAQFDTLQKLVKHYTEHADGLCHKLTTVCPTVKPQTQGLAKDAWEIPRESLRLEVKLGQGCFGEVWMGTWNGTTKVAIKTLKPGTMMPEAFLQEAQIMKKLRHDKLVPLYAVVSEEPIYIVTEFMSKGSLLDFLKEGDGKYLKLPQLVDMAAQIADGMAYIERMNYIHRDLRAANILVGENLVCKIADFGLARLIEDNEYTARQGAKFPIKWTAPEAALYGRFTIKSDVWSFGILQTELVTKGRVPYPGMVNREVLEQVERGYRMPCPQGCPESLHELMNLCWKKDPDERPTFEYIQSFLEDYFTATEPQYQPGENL

[18] = biological target: Fgr (Homo sapiens, UniProt P09769); experiment: biochemical kinase screening assay
Sequence of Fgr (P09769 whole entry): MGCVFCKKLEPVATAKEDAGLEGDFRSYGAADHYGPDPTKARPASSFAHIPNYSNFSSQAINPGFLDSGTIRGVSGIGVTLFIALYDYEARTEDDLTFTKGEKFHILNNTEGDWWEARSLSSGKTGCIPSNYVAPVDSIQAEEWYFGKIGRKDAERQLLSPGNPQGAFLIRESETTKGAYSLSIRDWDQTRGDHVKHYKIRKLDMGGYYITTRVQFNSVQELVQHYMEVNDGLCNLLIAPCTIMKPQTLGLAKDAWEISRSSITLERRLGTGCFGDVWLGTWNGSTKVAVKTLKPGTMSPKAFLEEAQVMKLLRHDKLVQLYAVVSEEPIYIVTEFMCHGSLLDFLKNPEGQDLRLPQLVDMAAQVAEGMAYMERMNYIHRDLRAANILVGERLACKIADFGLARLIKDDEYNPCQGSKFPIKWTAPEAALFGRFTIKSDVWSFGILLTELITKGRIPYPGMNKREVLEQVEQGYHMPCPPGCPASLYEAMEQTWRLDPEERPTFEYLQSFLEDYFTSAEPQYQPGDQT

[19] = test system: p53-defective human cancer cell lines; experiment: cell survival / MTT assays, cell line not named; type: cell-based
[20] = test system: wild type p53 HCT116 cells; experiment: cell survival assay, transiently transfected p53 wild type; type: cell-based, human; conditions: Compound 1 + gemcitabine compared with gemcitabine alone
Experimental: as §1

[21] = biological target: PRK2 (Homo sapiens, UniProt Q16513); experiment: biochemical kinase screening assay
[22] = biological target: T1, Chk2; experiment: cell-based or ex vivo assays of CHK2 activity
[23] = biological target: Fyn (Homo sapiens, UniProt P06241); experiment: biochemical kinase screening assay
[24] = test system: mutant p53 HCT116 cells; experiment: cell survival assay, transiently transfected p53 mutant; type: cell-based, human; conditions: Compound 1 + gemcitabine compared with gemcitabine alone
Experimental: as §1

[25] = biological target: Blk(m) (Mus musculus, UniProt P16277); experiment: biochemical kinase screening assay
Sequence of Blk(m) (P16277 whole entry): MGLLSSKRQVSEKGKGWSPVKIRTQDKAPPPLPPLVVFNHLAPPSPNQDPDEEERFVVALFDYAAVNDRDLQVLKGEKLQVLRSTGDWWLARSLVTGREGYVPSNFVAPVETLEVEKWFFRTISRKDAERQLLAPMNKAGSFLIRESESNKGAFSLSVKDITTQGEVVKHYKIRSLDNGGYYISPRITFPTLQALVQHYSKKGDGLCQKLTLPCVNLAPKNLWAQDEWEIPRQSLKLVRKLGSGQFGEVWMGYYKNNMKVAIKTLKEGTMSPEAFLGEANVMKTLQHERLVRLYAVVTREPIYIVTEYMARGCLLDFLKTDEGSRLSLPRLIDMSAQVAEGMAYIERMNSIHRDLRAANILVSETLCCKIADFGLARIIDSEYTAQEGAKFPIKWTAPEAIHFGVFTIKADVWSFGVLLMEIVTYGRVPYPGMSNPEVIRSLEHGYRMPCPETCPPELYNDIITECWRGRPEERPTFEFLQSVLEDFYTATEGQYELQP

[26] = biological target: PDK1 (Homo sapiens, UniProt O15530); experiment: biochemical kinase screening assay
[27] = test system: PC-3 (Prostate); experiment: cell survival / MTT combination cytotoxicity; type: cell-based, human; conditions: Homo sapiens
[28] = biological target: Rsk1 (Homo sapiens, UniProt Q15418); experiment: biochemical kinase screening assay
[29] = biological target: Abl(m) (Mus musculus, UniProt P00520); experiment: biochemical kinase screening assay
[30] = maximum tolerated dose by mean body weight loss; conditions: in vivo
[31] = biological target: EphB4 (Homo sapiens, UniProt P54760); experiment: biochemical kinase screening assay
[32] = test system: gemcitabine induced S-Phase arrest; experiment: flow cytometry cell cycle / apoptosis analysis; type: cell-based
[33] = biological target: Lck (Homo sapiens, UniProt P06239); experiment: biochemical
[34] = biological target: Axl (Homo sapiens, UniProt P30530); experiment: biochemical kinase screening assay
[35] = biological target: EGFR2 (Homo sapiens, UniProt P35968); experiment: biochemical kinase screening assay; conditions: read-out: IC50 (nM), given as Ki
[36] = test system: K562 (Leukemia); experiment: cell survival / MTT combination cytotoxicity; type: cell-based, human; conditions: Homo sapiens
[37] = biological target: Flt3 (Homo sapiens, UniProt P36888); experiment: biochemical kinase screening assay
Sequence of Flt3 (P36888 27-993): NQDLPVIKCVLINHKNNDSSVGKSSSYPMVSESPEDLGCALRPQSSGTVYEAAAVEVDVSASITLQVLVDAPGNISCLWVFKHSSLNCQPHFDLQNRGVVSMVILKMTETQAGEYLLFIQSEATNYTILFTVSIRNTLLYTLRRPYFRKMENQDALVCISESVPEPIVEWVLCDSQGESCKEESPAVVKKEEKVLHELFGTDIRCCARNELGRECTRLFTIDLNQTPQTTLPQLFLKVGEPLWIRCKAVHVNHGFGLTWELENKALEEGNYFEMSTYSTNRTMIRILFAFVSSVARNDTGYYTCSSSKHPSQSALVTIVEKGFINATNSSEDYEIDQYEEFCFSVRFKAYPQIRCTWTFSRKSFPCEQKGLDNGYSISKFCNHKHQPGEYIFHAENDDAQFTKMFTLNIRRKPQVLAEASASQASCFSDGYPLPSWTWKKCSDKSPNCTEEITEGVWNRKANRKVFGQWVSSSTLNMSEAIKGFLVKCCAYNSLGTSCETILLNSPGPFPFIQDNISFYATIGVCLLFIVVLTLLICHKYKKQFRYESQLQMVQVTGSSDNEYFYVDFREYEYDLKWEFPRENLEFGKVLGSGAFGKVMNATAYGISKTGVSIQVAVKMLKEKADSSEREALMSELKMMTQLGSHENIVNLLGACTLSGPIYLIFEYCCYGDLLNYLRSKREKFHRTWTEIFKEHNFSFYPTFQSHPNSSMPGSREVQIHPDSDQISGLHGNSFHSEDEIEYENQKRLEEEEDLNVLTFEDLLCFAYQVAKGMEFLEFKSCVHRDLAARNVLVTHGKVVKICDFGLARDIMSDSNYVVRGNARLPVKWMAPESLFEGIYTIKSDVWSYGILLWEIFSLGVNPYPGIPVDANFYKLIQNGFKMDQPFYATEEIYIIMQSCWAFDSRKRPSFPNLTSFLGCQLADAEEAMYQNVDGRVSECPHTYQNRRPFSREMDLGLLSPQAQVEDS

[38] = biological target: Rsk2 (Homo sapiens, UniProt P51812); experiment: biochemical kinase screening assay
[39] = in vivo; conditions: mouse

Cn1cc(-c2[nH]c3cc(NC(=O)[C@H](N)C4CCCCC4)cc4c3c2C=NNC4=O)cn1 [Compound 1]
EC50 [1]: 45 nM | IC50 [2]: 233 nM | IC50 [3]: 442 nM | IC50 [4]: 39 nM | IC50 [5]: 2810 nM | IC50 [6]: 1270 nM | IC50 [7]: 23 nM | Ki [8]: 47 nM | IC50 [9]: 1300 nM | IC50 [10]: 1800 nM | IC50 [11]: 350 nM | IC50 [12]: 1400 nM | IC50 [13]: 10 nM | increase in cell kill ([14]; Compound 1 540 nM (12×EC50) + camptothecin compared with camptothecin alone): 21.7 | increase in cell kill ([14]; Compound 1 540 nM (12×EC50) + gemcitabine compared with gemcitabine alone): 31.2% | IC50 [15]: 61 nM | IC50 [16]: 9.2 µM | IC50 [17]: 14 nM | IC50 [18]: 153 nM | effect on cell viability ([19]; Compound 1 alone compared with control (untreated) cells): no significant effect on cell viability | potentiation of gemcitabine cytotoxicity ([19]; combination with gemcitabine compared with gemcitabine alone): 89% | cell growth inhibition [20]: 15% | IC50 [21]: 1980 nM | modulation of CHK2 activity [22]: no evidence that CHK2 activity is modulated | IC50 [23]: 953 nM | cell growth inhibition [24]: 44% | IC50 [25]: 365 nM | IC50 [26]: 439 nM | IC50 [27]: 1600 nM | IC50 [28]: 98 nM | IC50 [29]: 929 nM | MTD [30]: 40 mg/kg | IC50 [31]: > 10 µM | S-Phase arrest by flow cytometry ([32]; combination with gemcitabine): abrogation of gemcitabine induced S-Phase arrest | apoptotic cells by flow cytometry ([32]; gemcitabine + Compound 1 compared with gemcitabine alone): significant increase in apoptotic cells | effect on cell cycle ([32]; in the absence of DNA damage): no effect on cell cycle | IC50 [33]: 396 nM | IC50 [34]: 117 nM | Ki [35]: 8 nM | IC50 [36]: 420 nM | IC50 [37]: 25 nM | IC50 [38]: 621 nM | MTD [39]: 60 mg/kg
